From the NIST ThermoML archive (doi:10.1016/j.jct.2013.10.034)

Assay: xn = mol fraction of the nth substance listed
Settings: 100 kPa, Liquid; for viscosity: Falling or rolling sphere viscometry; for mass density: Vibrating tube method

CCCC[N+]1(C)CCCC1.N#CN=C=[N-] [1-butyl-1-methylpyrrolidinium dicyanamide] + O
Settings | mass density, 323.15 K [kg/m3] | mass density, 328.15 K [kg/m3] | mass density, 333.15 K [kg/m3] | mass density, 338.15 K [kg/m3] | mass density, 343.15 K [kg/m3] | viscosity, 323.15 K [mPa·s] | viscosity, 328.15 K [mPa·s] | viscosity, 333.15 K [mPa·s] | viscosity, 338.15 K [mPa·s] | viscosity, 343.15 K [mPa·s]
x1 = 0.0729 | 992.46 | 989.39 | 985.91 | 982.26 | 979.39 | 2.233 | 2.005 | 1.807 | 1.642 | 1.496
x1 = 0.1652 | 996.43 | 993.17 | 989.89 | 986.61 | 983.31 | 3.985 | 3.59 | 3.196 | 2.892 | 2.593
x1 = 0.2234 | 998.16 | 994.93 | 991.81 | 988.61 | 985.46 | 4.99 | 4.448 | 3.98 | 3.587 | 3.24
x1 = 0.3163 | 1000.13 | 997.04 | 994.04 | 990.99 | 988.01 | 6.467 | 5.765 | 5.16 | 4.649 | 4.199
x1 = 0.3548 | 1000.71 | 997.72 | 994.76 | 991.74 | 988.75 | 7.043 | 6.295 | 5.643 | 5.083 | 4.587
x1 = 0.4198 | 1001.58 | 998.6 | 995.72 | 992.73 | 989.8 | 7.978 | 7.116 | 6.375 | 5.746 | 5.195
x1 = 0.4762 | 1002.18 | 999.26 | 996.34 | 993.46 | 990.47 | 8.763 | 7.819 | 7.009 | 6.319 | 5.717
x1 = 0.5239 | 1002.64 | 999.74 | 996.85 | 993.96 | 991.03 | 9.377 | 8.369 | 7.517 | 6.784 | 6.142
x1 = 0.6244 | 1003.38 | 1000.55 | 997.67 | 994.85 | 991.95 | 10.79 | 9.629 | 8.64 | 7.795 | 7.061
x1 = 0.629 | 1003.41 | 1000.57 | 997.7 | 994.9 | 991.96 | 10.85 | 9.685 | 8.691 | 7.841 | 7.103
x1 = 0.711 | 1003.92 | 1001.11 | 998.24 | 995.49 | 992.62 | 12 | 10.71 | 9.609 | 8.671 | 7.857
x1 = 0.7413 | 1004.07 | 1001.26 | 998.46 | 995.67 | 992.85 | 12.45 | 11.1 | 9.96 | 9 | 8.116
x1 = 0.8776 | 1004.69 | 1001.89 | 999.13 | 996.49 | 993.62 | 14.56 | 12.96 | 11.62 | 10.48 | 9.492
x1 = 0.9732 | 1005.09 | 1002.31 | 999.61 | 996.91 | 994.09 | 16.24 | 14.43 | 12.92 | 11.64 | 10.53
x1 = 1 | 1005.23 | 1002.48 | 999.74 | 997 | 994.28 | 16.72 | 14.84 | 13.28 | 11.96 | 10.82
